Experiments:
Format in all cases: in vivo
Abutilon theophrasti [1] = test: Pre-emergence herbicidal action, ABUTH; settings: dosage 320 g/ha, scored visually after 3 weeks vs untreated controls
Excerpt: (§1) 1. Pre-Emergence Herbicidal Action Against Harmful Plants Seeds of monocotyledonous and dicotyledonous weed plants and crop plants are laid out in sandy loam soil in wood-fiber pots and covered with soil. The compounds of the invention, formulated in the form of wettable powders (WP) or as emulsion concentrates (EC), are then applied to the surface of the covering soil in the form of an aqueous suspension or emulsion at a water application rate equating to […], with addition of 0.2% wetting agent. After the treatment, the pots are placed in a greenhouse and kept under good growth conditions for the trial plants. The damage to the test plants is scored visually after a test period of 3 weeks by comparison with untreated controls (herbicidal activity in percent (%): 100% activity=the plants have died, 0% activity=like control plants).
(§2) For comparison, the herbicidal activity of numerous compounds according to the invention was tested with the structurally closest compounds known from the documents WO 2011/035874, WO 2012/028579 and WO 2012/126932, by the pre- and post-emergence method.

Alopecurus myosuroides [2] = test: Post-emergence herbicidal action, ALOMY; settings: 80 g/ha, Table C
Protocol: (§3) Seeds of monocotyledonous and dicotyledonous weed and crop plants are laid out in sandy loam soil in wood-fiber pots, covered with soil and cultivated in a greenhouse under good growth conditions. 2 to 3 weeks after sowing, the test plants are treated at the one-leaf stage. The compounds of the invention, formulated in the form of wettable powders (WP) or as emulsion concentrates (EC), are then sprayed onto the green parts of the plants in the form of an aqueous suspension or emulsion at a water application rate equating to […], with addition of 0.2% wetting agent. After the test plants have been left to stand in the greenhouse under optimal growth conditions for about 3 weeks, the action of the preparations is assessed visually in comparison to untreated controls (herbicidal action in percent (%): 100% activity=the plants have died, 0% activity=like control plants). […] At the same time, inventive compounds leave Gramineae crops such as barley, wheat, rye, millet/sorghum, corn or rice virtually undamaged when applied post-emergence, even at high active compound dosages. In addition, some substances are also harmless to dicotyledonous crops such as soya, cotton, oilseed rape, sugar beet or potatoes. Some of the compounds according to the invention have high selectivity and are therefore suitable for controlling unwanted vegetation in agricultural crops by the post-emergence method. The data of Tables C and D below illustrate, in an exemplary manner, the […] herbicidal action of the compounds according to the invention, the herbicidal activity being stated in percent.
as §2

Stellaria media [3] = test: Post-emergence herbicidal action, STEME; settings: 80 g/ha, Table D
Protocol: as §3, §2

Pharbitis purpureum = test: Post-emergence herbicidal action, PHBPU; settings: 80 g/ha, Table D
Protocol: as §3, §2

Matricaria inodora = test: Pre-emergence herbicidal action, MATIN; settings: dosage 320 g/ha, scored visually after 3 weeks vs untreated controls
Excerpt: as §1, §2

Alopecurus myosuroides [4] = test: Pre-emergence herbicidal action, ALOMY; settings: dosage 320 g/ha, scored visually after 3 weeks vs untreated controls
Excerpt: as §1, §2

Viola tricolor [5] = test: Post-emergence herbicidal action, VIOTR; settings: 80 g/ha, Table D
Protocol: as §3, §2

Setaria viridis [6] = test: Post-emergence herbicidal action, SETVI; settings: 80 g/ha, Table C
Protocol: as §3, §2

Abutilon theophrasti [7] = test: Post-emergence herbicidal action, ABUTH; settings: 80 g/ha, Table D
Protocol: as §3, §2

Viola tricolor [8] = test: Pre-emergence herbicidal action, VIOTR; settings: dosage 320 g/ha, scored visually after 3 weeks vs untreated controls
Excerpt: as §1, §2

ECHCG = test: Post-emergence herbicidal action, ECHCG; settings: 80 g/ha, Table C
Protocol: as §3

Cyperus serotinus = test: Pre-emergence herbicidal action, CYPES; settings: dosage 320 g/ha, scored visually after 3 weeks vs untreated controls
Excerpt: as §1, §2

Avena fatua [9] = test: Pre-emergence herbicidal action, AVEFA; settings: dosage 320 g/ha, scored visually after 3 weeks vs untreated controls
Excerpt: as §1, §2

Setaria viridis [10] = test: Pre-emergence herbicidal action, SETVI; settings: dosage 320 g/ha, scored visually after 3 weeks vs untreated controls
Excerpt: as §1, §2

Stellaria media [11] = test: Pre-emergence herbicidal action, STEME; settings: dosage 320 g/ha, scored visually after 3 weeks vs untreated controls
Excerpt: as §1, §2

Avena fatua [12] = test: Post-emergence herbicidal action, AVEFA; settings: 80 g/ha, Table C
Protocol: as §3, §2

Amaranthus retroflexus [13] = test: Pre-emergence herbicidal action, AMARE; settings: dosage 320 g/ha, scored visually after 3 weeks vs untreated controls
Excerpt: as §1, §2

Amaranthus retroflexus [14] = test: Post-emergence herbicidal action, AMARE; settings: 80 g/ha, Table D
Protocol: as §3, §2

SMILES | herbicidal activity ABUTH (Abutilon theophrasti [1]) | herbicidal activity ALOMY (Alopecurus myosuroides [2]) | Herbicidal activity STEME (Stellaria media [3]) | Herbicidal activity PHBPU (Pharbitis purpureum) | herbicidal activity MATIN (Matricaria inodora) | herbicidal activity ALOMY (Alopecurus myosuroides [4]) | herbicidal activity VIOTR (Viola tricolor [5]) | herbicidal activity SETVI (Setaria viridis [6]) | herbicidal activity ABUTH (Abutilon theophrasti [7]) | herbicidal activity VIOTR (Viola tricolor [8]) | Herbicidal activity ECHCG (ECHCG) | herbicidal activity CYPES (Cyperus serotinus) | herbicidal activity AVEFA (Avena fatua [9]) | herbicidal activity SETVI (Setaria viridis [10]) | Herbicidal activity STEME (Stellaria media [11]) | herbicidal activity AVEFA (Avena fatua [12]) | herbicidal activity AMARE (Amaranthus retroflexus [13]) | herbicidal activity AMARE (Amaranthus retroflexus [14])
CCCn1nnnc1NC(=O)c1ccc(C(F)F)c([S+](C)[O-])c1C (stereo not drawn) [Example 3-2] | 100% | 90% | 100% | 90% | 100% | 90% | 100% | 100% | 80% | 100% | 90% | 80% | 90% | 100% | 90% | 90% | 100% | 
CCCn1nnnc1NC(=O)c1ccc(C(F)F)c(S(C)(=O)=O)c1C [Example 3-3] | 100% | 90% | 90% | 90% | 100% | 90% | 100% | 90% | 90% | 100% | 90% | 90% | 100% | 100% |  | 90% | 100% | 80%
CCSc1c(C(F)F)ccc(C(=O)Nc2ncnn2C)c1Br [Example 4-64] | 100% | 100% | 100% | 100% | 100% | 90% | 100% | 100% | 100% | 100% | 100% |  | 100% | 100% | 100% | 100% | 100% | 100%
CCSc1c(C(F)F)ccc(C(=O)Nc2nnc(C)o2)c1C [Example 7-4] | 100% | 90% | 90% |  | 80% | 90% | 100% | 100% |  | 100% | 100% |  |  | 100% | 90% | 90% | 100% | 100%
CCSc1c(C(F)F)ccc(C(=O)Nc2nnc(C)o2)c1Cl [Example 7-50] | 100% | 90% | 90% |  | 90% | 100% | 100% | 100% | 100% | 100% | 100% | 90% | 100% | 100% | 100% | 90% | 90% | 90%
CCS(=O)(=O)c1c(C(F)F)ccc(C(=O)Nc2nnc(C)o2)c1Br [Example 7-64] | 100% | 90% | 90% | 100% | 100% | 100% | 90% | 100% | 100% | 100% | 100% | 100% | 100% | 100% | 100% | 100% |  | 100%

Reference: patent US20230183193A1, “4-DIFLUOROMETHYL BENZOYL AMIDES WITH HERBICIDAL ACTION” (BAYER CROPSCIENCE AKTIENGESELLSCHAFT, priority 2017, published 2023)
